How the values were obtained:
[1] = test system: NZW rabbits, normal or infected with HCMV in their eyes; experiment: Effect of cyclocreatine continuous intravenous infusion on glucose levels in rabbits; type: in vivo, rabbit; conditions: for average glucose levels: 10 and 5 mg/ml
Description: The creatine compound cyclocreatine, was given as a continuous intravenous infusion (IV) to normal rabbits or rabbits infected with the human cytomegalovirus (HCMV) in their eyes (Rabbit Chorioretinal model). Glucose levels were recorded over a period of seven days. This compound was tested in infected as well as in normal animals due to the fact that these compounds were also being evaluated as anti viral agents, a biological activity that were reported in the U.S. Pat. No. 5,321,030. As will become clear in the data presented here the eye infection had no effect on the levels of glucose recorded. The schedule and dose selected in these experiments was based on prior experience working with this class of compounds as antiviral agents.
A total of 11 NZW rabbits weighing 1.75-2.0 Kg were used in the experiments. All animals were infused with various doses of cyclocreatine over a period of 1-7 days in a continuous infusion mode. Continuous infusions were achieved by surgical implantation of an indwelling catheter implant into the jugular vein by standard surgical procedures. The catheter was threaded through a steel sleeve and swivel apparatus attached to the back of the animal's neck which was anchored to a specially fitted vest. A Harvard Apparatus 2200 unifusion pump maintained drug delivery at a constant rate through out the experiment. This arrangement allowed the animal unimpaired movement within its cage. Animals received a bolus injection of antibiotics immediately after surgery and daily if needed. After animals recovered from the anesthesia, some animals were inoculated by intravitreal injection of AD169 HCMV (10^5 pfu). The remaining animals were left uninfected. Both infected and uninfected animals received a continuous infusion of cyclocreatine or saline for up to seven days. Concentrations of cyclocreatine were 5, 10, or 15 mg cyclocreatine/ml saline and infusion rates and volumes were adjusted to achieve the desired dose of 375-1125 mg/Kg/day. These concentrations were based on amounts required to achieve other biological activities such as antiviral or anticancer. […] The rest of the animals received a similar volume of sterile saline. […]

[2] = test system: Male Zuker diabetic fatty (ZDF-fa/fa) rats; experiment: Creatine compounds as 1% of the diet, glucose and insulin levels in diabetic rats; type: in vivo, rat
From the text: (§1) This preliminary study was initiated to gain insight into the potential regulation of glucose levels by creatine compounds in ZDF rats, a widely studied rodent model of NIDDM (Peterson, Lessons from Animal Diabetes, 1994, Pages 225-230). Male Zuker diabetic fatty (ZDF-fa/fa) rats and their lean Zuker littermates (ZDF +/?) were from Genetic Models, Inc., Indianapolis, Ind. […] Hyperglycemia is initially manifested at about 7 weeks of age and all obese rats are fully diabetic by 12 weeks of age (fed blood glucose of greater than 500 mg %). This level of hyperglycemia increases slightly for several weeks thereafter. Between 7 and 10 weeks, blood insulin levels are high but these subsequently drop as the pancreatic beta cells cease to respond to the glucose stimulus. The lean (ZDF/Gmi) rats are the control counterparts of the diabetic animals. These rats have the same genetics as the obese animals except for the obesity trait. No phenotypic differences have been observed between these rats and other typical lean control rats.
(§2) Male Zuker diabetic fatty (ZDF-fa/fa) rats and Zuker lean littermates (ZDF +/?) were 12 weeks old when dosing with creatine compounds was initiated. The ZDF-fa/fa rats were completely diabetic. The littermates were the same age. […] Animals were bled regularly throughout the experiment and glucose and insulin levels were determined using standard procedures (Linco RI-13K). […]

[3] = test system: Zuker lean littermates (ZDF +/?); experiment: Creatine compounds as 1% of the diet, glucose and insulin levels in lean littermates; type: in vivo, rat
From the text: as §1, §2

[4] = uninfected, 15 mg/ml (1125 mg/Kg/day), day five

SMILES: NC1=NCCN1CC(=O)O [cyclocreatine]
- Glucose Levels ([1]; 5 mg/ml, HCMV infected, animal 1, day 0): 177 mg/dL
- Glucose Levels ([1]; 5 mg/ml, HCMV infected, animal 1, day 1): 104 mg/dL
- Glucose Levels ([1]; 5 mg/ml, HCMV infected, animal 1, day 3): 70 mg/dL
- Glucose Levels ([1]; 5 mg/ml, HCMV infected, animal 1, day 5): 29 mg/dL
- Glucose Levels ([1]; 5 mg/ml, HCMV infected, animal 2, day 0): 177 mg/dL
- Glucose Levels ([1]; 5 mg/ml, HCMV infected, animal 2, day 1): 94 mg/dL
- Glucose Levels ([1]; 5 mg/ml, HCMV infected, animal 2, day 3): 49 mg/dL
- Glucose Levels ([1]; 5 mg/ml, HCMV infected, animal 2, day 5): 41 mg/dL
- Glucose Levels ([1]; 5 mg/ml, HCMV infected, animal 3, day 0): 177 mg/dL
- Glucose Levels ([1]; 5 mg/ml, HCMV infected, animal 3, day 1): 93 mg/dL
- Glucose Levels ([1]; 5 mg/ml, HCMV infected, animal 3, day 3): 47 mg/dL
- Glucose Levels ([1]; 5 mg/ml, HCMV infected, animal 3, day 5): 33 mg/dL
- Glucose Levels ([1]; 10 mg/ml, HCMV infected, animal 1, day 0): 169 mg/dL
- Glucose Levels ([1]; 10 mg/ml, HCMV infected, animal 1, day 1): 118 mg/dL
- Glucose Levels ([1]; 10 mg/ml, HCMV infected, animal 1, day 3): 103 mg/dL
- Glucose Levels ([1]; 10 mg/ml, HCMV infected, animal 1, day 4): 59 mg/dL
- Glucose Levels ([1]; 10 mg/ml, HCMV infected, animal 1, day 5): 45 mg/dL
- Glucose Levels ([1]; 10 mg/ml, HCMV infected, animal 2, day 0): 194 mg/dL
- Glucose Levels ([1]; 10 mg/ml, HCMV infected, animal 2, day 1): 89 mg/dL
- Glucose Levels ([1]; 10 mg/ml, HCMV infected, animal 2, day 3): 98 mg/dL
- Glucose Levels ([1]; 10 mg/ml, HCMV infected, animal 2, day 4): 69 mg/dL
- Glucose Levels ([1]; 10 mg/ml, HCMV infected, animal 2, day 5): 62 mg/dL
- Glucose Levels ([1]; 10 mg/ml, HCMV infected, animal 3, day 0): 201 mg/dL
- Glucose Levels ([1]; 10 mg/ml, HCMV infected, animal 3, day 1): 76 mg/dL
- Glucose Levels ([1]; 10 mg/ml, HCMV infected, animal 3, day 3): 74 mg/dL
- Glucose Levels ([1]; 10 mg/ml, HCMV infected, animal 3, day 4): 87 mg/dL
- Glucose Levels ([1]; 10 mg/ml, HCMV infected, animal 3, day 5): 55 mg/dL
- Glucose Levels ([1]; 10 mg/ml, HCMV infected, animal 4, day 0): 184 mg/dL
- Glucose Levels ([1]; 10 mg/ml, HCMV infected, animal 4, day 1): 81 mg/dL
- Glucose Levels ([1]; 10 mg/ml, HCMV infected, animal 4, day 3): 85 mg/dL
- Glucose Levels ([1]; 10 mg/ml, HCMV infected, animal 4, day 4): 65 mg/dL
- Glucose Levels ([1]; 10 mg/ml, HCMV infected, animal 4, day 5): 53 mg/dL
- Glucose Levels ([1]; 15 mg/ml, not infected, animal 1, day 0): 177 mg/dL
- Glucose Levels ([1]; 15 mg/ml, not infected, animal 1, day 3): 48 mg/dL
- Glucose Levels ([1]; 15 mg/ml, not infected, animal 2, day 0): 177 mg/dL
- Glucose Levels ([1]; 15 mg/ml, not infected, animal 2, day 3): 59 mg/dL
- Glucose Levels ([1]; 15 mg/ml, not infected, animal 2, day 5): 7 mg/dL
- Glucose Levels ([1]; 15 mg/ml, not infected, animal 3, day 0): 177 mg/dL
- Glucose Levels ([1]; 15 mg/ml, not infected, animal 3, day 5): 22 mg/dL
- Glucose Levels ([1]; 15 mg/ml, not infected, animal 3, day 6): 22 mg/dL
- Glucose Levels ([1]; 15 mg/ml, not infected, animal 3, day 7, (10 ml/rabbit 20% Dextrose)): 73 mg/dL
- Glucose Levels ([1]; ave 5 mg/ml, HCMV infected, day 0): 177 mg/dL
- Glucose Levels ([1]; ave 5 mg/ml, HCMV infected, day 1): 97 mg/dL
- Glucose Levels ([1]; ave 5 mg/ml, HCMV infected, day 3): 55 mg/dL
- Glucose Levels ([1]; ave 5 mg/ml, HCMV infected, day 5): 34 mg/dL
- Glucose Levels ([1]; ave 10 mg/ml, HCMV infected, day 0): 187 mg/dL
- Glucose Levels ([1]; ave 10 mg/ml, HCMV infected, day 1): 91 mg/dL
- Glucose Levels ([1]; ave 10 mg/ml, HCMV infected, day 3): 90 mg/dL
- Glucose Levels ([1]; ave 10 mg/ml, HCMV infected, day 4): 70 mg/dL
- Glucose Levels ([1]; ave 10 mg/ml, HCMV infected, day 5): 54 mg/dL
- Glucose Levels ([1]; ave 15 mg/ml, not infected, day 0): 177 mg/dL
- Glucose Levels ([1]; ave 15 mg/ml, not infected, day 3): 54 mg/dL
- Glucose Levels ([1]; ave 15 mg/ml, not infected, day 5): 15 mg/dL
- Glucose Levels ([1]; ave 15 mg/ml, not infected, day 6): 22 mg/dL
- Glucose Levels ([1]; ave 15 mg/ml, not infected, day 7, (10 ml/rabbit 20% Dextrose)): 73 mg/dL
- blood glucose levels ([1]; infected, 10 mg/ml (750 mg/Kg/day) and 5 mg/ml (375 mg/Kg/day)): significant drop in blood glucose levels
- average glucose levels ([1]; infected, day five): 30 to 50 mg/dL
- average glucose levels ([1]; infected, day one): ~90 mg/dL
- Glucose Levels ([1]; uninfected, 15 mg/ml (1125 mg/Kg/day)): significant drop in their glucose levels
- Glucose Levels [1, 4]: 7 to 22 mg/dL
- condition of the animals [1, 4]: very lethargic
- Glucose Levels ([1]; uninfected, 15 mg/ml (1125 mg/Kg/day), day three): 48 to 59 mg/dL
- level of glucose after 10 mls of a 20% solution of dextrose ([1]; uninfected, 15 mg/ml, day 7): 70 mg/dL
- drop in glucose levels ([2]; obese diabetic animals, vs Day 0, n=3): ~20%
- effect on insulin levels ([2]; obese fatty animals): minimally affected
- drop in insulin levels ([3]; lean animals): over 50%
- drop in level of glucose ([3]; lean rats, vs Day 0, n=3): about 15%

Source: US20050256134A1, “Use of creatine analogues and creatine kinase modulators for the prevention and treatment of glucose metabolic disorders” (AVICENA GROUP, INC., priority 1995, published 2005)
